Measured values published in EP0491793B1, “2'-DEOXY-4'-THIORIBONUCLEOSIDES AS ANTIVIRAL AND ANTICANCER AGENTS” (Southern Research Institute, priority 1989, dated 1991).
Converted amounts (≈) assume the structure as drawn. Like-named read-outs stand apart in the source and are kept apart here.

Legend:
[1] = test system: HSV-2 (MS); experiment: CPE-inhibition assay against HSV-2 in Vero cell monolayers; format: cell-based, herpes simplex virus, Type 2; conditions: for VR: Virus Rating, VR 1.0 or greater significant, 0.5-0.9 marginal, less than 0.5 inactive; for EC50: read-out: MIC50
Description: (§1) 2'-Deoxy-4'-thioribonucleosides were tested for antiviral activity against viruses that replicate in mammalian cells growing in cell culture. The Virus Rating (VR) is a standard weighted measurement of antiviral activity which takes into account the degree of inhibition of virus-induced cytopathogenic effects (CPE) and the degree of cytotoxicity produced by the test compound, determined by a modification of the method of Ehrlich et al, Ann. N.Y. Acad. Sci. 130, 5-16 (1965) .
(§2) The CPE-inhibition assays were designed to test seven 0.5 log10 concentrations of each compound, beginning with 320 µg/mL, against HSV in triplicate 24-hour Vero cell monolayers in 96-well tissue culture plates. To each of the replicate cell cultures were dispensed 0.1 mL of the test compound solution (or suspension) and 0.1 mL of HSV suspension (diluted in medium to yield 32 CCID50 units per 0.1 mL). Cell controls, untreated virus-infected controls and drug cytotoxicity controls were included in each assay. […] The cell monolayers were examined microscopically for drug cytotoxicity and for CPE. which was graded on a scale of 0-4 (0-100% CPE).
(§3) The VR was calculated as 0.1 of the sum of the numerical differences between the recorded CPE grade of each test well and that of the corresponding virus control in the culture plate. Numerical differences between the scores of test wells containing a drug concentration which is partially cytotoxic and their corresponding virus controls were halved.
(§4) In tests carried out by this method, a greater value of VR indicates greater antiviral activity.
(§5) The MIC50 (minimum inhibitory concentration, 50%) is the concentration of a test compound required for 50% inhibition of virus-induced cytopathogenic effect calculated by using a regression analysis program for semilog curve fitting. MTC (minimum toxic concentration) is the minimum drug concentration (µg/ml) causing any cytotoxicity. TI is the therapeutic index, calculated by dividing the minimum cytotoxic drug concentration (MTC) by the minimum inhibitory concentration, 50% (MIC50). […]

[2] = test system: human epidermoid carcinoma No. 2 ("H.Ep.-2") cells; experiment: Cytotoxicity test, colony formation of H.Ep.-2 cells; format: cell-based; conditions: HEp-2, 240 h, concentration reducing colony formation by 50%, 10 days incubation
Description: (§6) 2'-Deoxy-4'-thioribonucleosides were tested for antitumor activity against leukemia L1210 ("L1210") cells and human epidermoid carcinoma No. 2 ("H.Ep.-2") cells.
(§7) For H.Ep.-2 cells, the IC50 is the concentration required to reduce colony formation by 50% as compared to controls. One hundred cells in 10 mL of medium were placed in prescription bottles, and after 10 days incubation, the medium was decanted and the colonies were stained and counted.
(§8) In the cytotoxicity tests, the lower the IC50 value, the greater the antitumor activity. […]

[3] = test system: either H.Ep.-2 or L1210 cells, or both; experiment: Cytotoxicity tests, summary statements that do not fix the cell line; format: cell-based; conditions: text statement on Table 2, cell line not fixed
Description: as §6
(§9) For L1210 cells the IC50 is the concentration required to decrease cellular proliferation by 50% as compared to untreated controls. The cells were grown in suspension cultures and the number of cells present was determined at 24 and 48 hours.
as §7, §8

[4] = test system: leukemia L1210 ("L1210") cells; experiment: Cytotoxicity test, cellular proliferation of L1210 cells in suspension culture; format: cell-based; conditions: Mus musculus, concentration decreasing cellular proliferation by 50%, 48 hour values
Description: as §6, §9, §8

[5] = test system: HSV-1 (E377); experiment: CPE-inhibition assay against HSV-1 in Vero cell monolayers; format: cell-based, herpes simplex virus, Type 1; conditions: for EC50: read-out: MIC50; for VR: Virus Rating, VR 1.0 or greater significant, 0.5-0.9 marginal, less than 0.5 inactive; for TI: therapeutic index, MTC divided by MIC50, HSV-1 (E377)
Description: as §1, §2, §3, §4, §5

[6] = in vitro; format: cell-based; conditions: monkey, vero cells
Description: (§10) The CPE-inhibition assays were designed to test seven 0.5 log10 concentrations of each compound, beginning with 320 µg/mL, against HSV in triplicate 24-hour Vero cell monolayers in 96-well tissue culture plates. […] Cell controls, untreated virus-infected controls and drug cytotoxicity controls were included in each assay. […] The cell monolayers were examined microscopically for drug cytotoxicity and for CPE. which was graded on a scale of 0-4 (0-100% CPE). The MIC50 (minimum inhibitory concentration, 50%) is the concentration of a test compound required for 50% inhibition of virus-induced cytopathogenic effect calculated by using a regression analysis program for semilog curve fitting. MTC (minimum toxic concentration) is the minimum drug concentration (µg/ml) causing any cytotoxicity. TI is the therapeutic index, calculated by dividing the minimum cytotoxic drug concentration (MTC) by the minimum inhibitory concentration, 50% (MIC50). […]

[7] = test system: Vero cell monolayers; experiment: in vitro; format: cell-based; conditions: monkey, vero cells
Description: as §10

[8] = Human alphaherpesvirus 1, 50% inhibition of virus-induced cytopathogenic effect, HSV-1 (E377), Vero cells, unit not given for MIC50 (MTC in µg/ml, TI = MTC/MIC50)

Row | Compound | VR ([1]; HSV-2 (MS), Vero cells) | IC50 [2] | IC50 [3] | IC50 [4] | EC50 [5, 8] | VR ([5]; HSV-1 (E377), Vero cells) | TI [5] | MCC [6] | antiviral activity against herpes simplex Type 1 ([5]; statement in words on the tests of Table 1) | MIC [7] | EC50 ([1]; Human alphaherpesvirus 2, 50% inhibition of virus-induced cytopathogenic effect, HSV-2 (MS), Vero cells, unit not given for MIC50 (MTC in µg/ml, TI = MTC/MIC50)) | EC50 ([1]; Human alphaherpesvirus 2, Vero) | TI ([1]; therapeutic index, MTC divided by MIC50, HSV-2 (MS)) | EC50 ([5]; Human alphaherpesvirus 1, Vero)
1 | Cc1cn([C@H]2C[C@H](O)[C@@H](CO)S2)c(=O)[nH]c1=O [1-(2'-Deoxy-4'-thio-β-D-ribofuranosyl)thymine] | 0.1 | 0.075 mg/L (≈ 0.29 µM) | < 1 mg/L | 0.025 mg/L (≈ 0.0968 µM) | 0.8 mg/L (≈ 3.1 µM) | 1.3 | 3.2 - | 2.6 µg/mL |  |  |  |  |  | 
2 | Cc1cn([C@@H]2C[C@H](O)[C@@H](CO)S2)c(=O)[nH]c1=O [1-(2-Deoxy-4-thio-α-D-ribofuranosyl)-thymine] | 0.3 | 2.7 mg/L (≈ 10.5 µM) |  | 20 mg/L (≈ 77.4 µM) | 100 mg/L (≈ 388 µM) | 1.4 | 2.3 - | > 257 µg/mL | definite antiviral activity | >257.2 >257.2 µg/ml |  |  |  | 
3 | Nc1nc2c(ncn2COCCO)c(=O)[nH]1 [Acyclovir, reference compound] | 4.8 |  |  |  | 0.5 mg/L (≈ 2.22 µM) | 6.7 | > 441 | > 225 µg/mL |  | >225.2 >225.2 µg/ml | 3.6 mg/L (≈ 16 µM) |  |  | 
4 | Nc1ncnc2c1ncn2[C@@H]1O[C@H](CO)[C@@H](O)[C@@H]1O [Ara-A, 9-β-D-arabinofuranosyladenine, reference compound] | 1.1 |  |  |  |  | 1.8 | 5.6 | 84.8 µg/mL |  |  |  | 39.3 mg/L (≈ 147 µM) | 2.2 | 15.2 mg/L (≈ 56.9 µM)
